From patent US9090627B2 (priority 2012, dated 2015)

Assays:
[1] = human
[2] = rat
[3] = test system: mice; conditions: mouse, in vivo; cited from earlier work

**Q.** Which results are given for `CCN1C[C@]2(COC)[C@H](O)C[C@H](OC)[C@@]34[C@@H]5C[C@@]6(O)[C@H](OC(=O)c7ccccc7)[C@@H]5[C@@](OC(C)=O)([C@@H]([C@H](OC)[C@H]23)[C@@H]14)[C@@H](O)[C@@H]6OC` [aconitine]?
**A.** Change in penetration with application time [1]: increased penetration occurring at 4 and 10 hours of application in comparison to 1 hour; Skin penetration behavior (layer reached) [2]: Complete skin penetration

**Q.** With Batrachotoxin as the molecule, how does the LD50 in mice [3] read?
**A.** 2 µg/kg
